# What was measured:
# [1] = tested on: black spot of pear (Alternaria kikuchiana); test: Protective activity test on black spot of pear; format: in vivo; settings: 500 ppm active ingredient; pear var. 20-Seiki, sprayed 7 days before inoculation; no treatment 77.8
# [2] = tested on: Alternaria leaf spot of apple (Alternaria mali); test: Protective activity test on Alternaria leaf spot of apple; format: in vivo; settings: 500 ppm active ingredient; apple var. Indo, sprayed 6 days before inoculation; no treatment 79.6
# [3] = tested on: blue mold of orange (Penicillium italicum); test: Protective activity test on blue mold of orange; format: in vivo; settings: orange fruits var. Unshu dipped 1 minute, index 0-5, 7 days after inoculation, no treatment 5.0
# Experimental: Protective activity test on blue mold of orange (Penicillium italicum): Orange fruits (var.: Unshu) were well washed with water and air-dried. Each of the emulsifiable concentrates containing the test compounds was diluted with water to a required concentration and the air-dried orange fruits were dipped in the aqueous solution for 1 minute. After air-drying, the surface of the fruit was inoculated by spraying a spore suspension of Pencillium italicum cultured in a potato agar medium for 5 days. […] The results are shown in the mean value of disease index.
# [4] = tested on: fungicide-resistant strain of black spot fungus (Alternaria kikuchiana) resistant to Polyoxin; test: Fungicidal activity test on fungicide-resistant pathogens: mycelial growth inhibition on agar plate, Polyoxin-resistant strain; format: cell-based; settings: 96 h, 27° C., 4 days, read-out: Percentage of growth inhibition, fungicide-resistant strain; for inhibition at 1 ppm: 1 ppm active ingredient; for inhibition at 10 ppm: 10 ppm active ingredient
# [5] = tested on: wild (susceptible) strain of Alternaria kikuchiana; test: Fungicidal activity test: mycelial growth inhibition on agar plate, wild susceptible strain; format: cell-based; settings: 96 h, 27° C., 4 days, read-out: Percentage of growth inhibition, wild susceptible strain; for inhibition at 1 ppm: 1 ppm active ingredient; for inhibition at 10 ppm: 10 ppm active ingredient
SMILES,Disease severity [1] [%],Disease severity [2] [%],Mean value of disease index ([3]; 100 ppm active ingredient),other results
CC(C)C(=O)N1CC(=O)N(c2cc(Cl)cc(Cl)c2)C1=O [Compound 1],4.3,7.2,0.5,–
CC(C)CC(=O)N1CC(=O)N(c2cc(Cl)cc(Cl)c2)C1=O [Compound 2],3.0,2.4,0.0,inhibition at 1 ppm [4]: 76%; inhibition at 10 ppm [4]: 95%; inhibition at 1 ppm [5]: 78%; inhibition at 10 ppm [5]: 96%
CC(C)(C)C(=O)N1CC(=O)N(c2cc(Cl)cc(Cl)c2)C1=O [Compound 3],7.4,9.6,0.2,–
CC(C)(C)CC(=O)N1CC(=O)N(c2cc(Cl)cc(Cl)c2)C1=O [Compound 4],8.9,5.7,0.4,inhibition at 1 ppm [4]: 61%; inhibition at 10 ppm [4]: 93%; inhibition at 1 ppm [5]: 64%; inhibition at 10 ppm [5]: 92%
CC(C)CC(=O)N1CC(=O)N(c2cc(Br)cc(Br)c2)C1=O [Compound 5],2.6,3.0,0.1,–
CCC(C)C(=O)N1CC(=O)N(c2cc(Cl)cc(Cl)c2)C1=O (centres unmarked) [Compound 6],5.5,8.1,–,–
CCC(C)CC(=O)N1CC(=O)N(c2cc(Cl)cc(Cl)c2)C1=O (centres unmarked) [Compound 7],3.7,4.1,–,–
CCC(CC)C(=O)N1CC(=O)N(c2cc(Cl)cc(Cl)c2)C1=O [Compound 8],4.0,3.6,–,–
CCCC(C)C(=O)N1CC(=O)N(c2cc(Cl)cc(Cl)c2)C1=O (centres unmarked) [Compound 9],2.1,1.7,–,–
CC(C)CCC(=O)N1CC(=O)N(c2cc(Cl)cc(Cl)c2)C1=O [Compound 10],9.8,9.9,–,–
"CCC(=O)N1CC(=O)N(c2cc(Cl)cc(Cl)c2)C1=O [drawing 37, reference compound]",–,–,–,inhibition at 1 ppm [4]: 45%; inhibition at 10 ppm [4]: 69%; inhibition at 1 ppm [5]: 49%; inhibition at 10 ppm [5]: 68%
"CCC(=O)N1CC(=O)N(c2cc(Cl)cc(Cl)c2)C1=O [drawing 38, reference compound]",31.6,–,–,–
"CCC(=O)N1CC(=O)N(c2cc(Cl)cc(Cl)c2)C1=O [drawing 40, reference compound]",–,36.8,–,–
"CCC(=O)N1CC(=O)N(c2cc(Cl)cc(Cl)c2)C1=O [drawing 43, reference compound]",–,–,–,Mean value of disease index ([3]; 200 ppm active ingredient): 3.0
CC(=O)N1CC(=O)N(c2cc(Cl)cc(Cl)c2)C1=O [reference compound],–,–,–,Mean value of disease index ([3]; 200 ppm active ingredient): 2.8

# Reference: patent US4181732A, “1-Branched-alkylcarbonyl-3-(3,5-dihalophenyl)imidazolidine-2,4-diones” (Sumitomo Chemical Company, Limited, priority 1977, dated 1980)
